The results in this text go back to patent publication US20250257325A1, “SYSTEM AND COMPOSITION OF R[…] FOR P[…] VIRUSES AND METHODS THEREOF” (The University of Hong Kong, priority 2024, published 2025).

Assay [1] has as its system HRV-C3. Briefly: HRV-C3 serial passage in nasal organoids with CYT387 or DMSO (viral load by RT-qPCR). The class given is cell-based, human rhinovirus C. The conditions noted are these: human nasal organoids, CYT387 vs DMSO, 100 viral gene copy/cell, 96 h.p.i. As for the experimental part:
We inoculated nasal organoids with the HRV-C3+ medium collected from organoids infected with an HRV-C3+ clinical specimen in the presence of CYT or DMSO and collected culture media at 96 h.p.i. Due to the high viral load in DMSO-treated nasal organoids in a preliminary experiment, we changed the experimental design. Briefly, the virus-containing media from CYT- and DMSO-treated organoids were brought forward to the next round of infection with the CYT and DMSO treatment, respectively (FIG. 3A). […] Nonetheless, in the absence of CYT, nasal organoids derived from two different donors sustained four consecutive passages of HRV-C3 (FIG. 3B). We also tested HRV-C11+ (FIG. 3C) and HRV-C15+ (FIG. 3D) medium (the medium collected from organoids infected with an HRV-C11+ and HRV-C15+ clinical specimen respectively) in nasal organoids derived from another donor. The two subtypes of HRV-C were serially passaged three times with high viral loads, and more passages could be furthered, if necessary. Overall, nasal organoids per se sustained serial propagation of HRV-C without any intervention. […] HRV-C virions released from the nasal organoids were concentrated and applied to transmission electron microscope (TEM) examination. Virion particles sized around 30 nm, and empty capsid particles were readily discernible (FIG. 3F). […]

The subject of assay [2] is HRV-C3. The assay is described as follows: HRV-C3 replication and serial passage in airway organoids with CYT387 or DMSO (viral load by RT-qPCR). The class given is cell-based, human rhinovirus C. The note with it: human airway organoids; for serial HRV-C propagation (P1-P5) and viral load versus DMSO-treated organoids: 1 μg/ml CYT387, media harvested at 96 h.p.i. As for the experimental part:
We examined HRV-C replication in airway organoids in the presence or absence of CYT387 (FIG. 2A). Briefly, we inoculated an HRV-C3+ medium (medium collected from organoids infected by an HRV-C3+ clinical specimen) onto the airway organoids pre-treated with 1 μg/ml CYT387 or DMSO. The infected organoids were further incubated with CYT387 (CYT thereafter) or DMSO for 96 hours, after which we harvested the culture medium (P1) to examine viral growth. P1 media from CYT- and mock-treated organoids were brought forward to P2 passage in the presence of CYT and DMSO, respectively (FIG. 2A). […] In the following P3 passage, we had to inoculate CYT-treated P2 media onto airway organoids, in which we continued CYT or DMSO treatment to verify the enhancement effect of CYT. This CYT-treated media inoculation, followed by CYT or DMSO treatment, was repeated in the subsequent P4 and P5 passage.
A total of 9 HRV-C positive archived nasopharyngeal specimens from clinical patients were used for the study. Mature human airway and nasal organoids growing on 24-transwell inserts were washed twice with the basal medium (Advanced DMEM/F-12 (Gibco) supplemented with 1% HEPES, 1% GlutaMAX, and 1% Penicillin/Streptomycin), followed by virus inoculation with the indicated viral gene copy and subsequent incubation in the PD medium (PneumaCult-ALI medium (STEMCELL Technologies) supplemented with 10 μM DAPT and 10 μM Y27632), at 37° C. for 4 h. After incubation, the airway or nasal organoids were washed 3 times with the basal medium to remove residual inoculum. The apical and basolateral chambers were replenished with 300 μl and 500 μl PD medium, respectively. As for CYT387 treatment, airway and nasal organoids were pre-incubated in the PD medium with 1 μg/ml CYT387 (Invivogen, inh-cy87) or DMSO overnight. After virus inoculation, PD medium supplemented with 1 μg/ml CYT387 or DMSO was dispersed into apical and basolateral chambers to maintain the organoids. To assess the effect of temperature on viral growth, we infected nasal organoids with HRV-C3 and HRV-A1 at 100 viral gene copy/cell and maintained the organoids at 33° C. or 37° C. […] Culture media were harvested from the infected organoids at the indicated h.p.i. to detect viral replication. To investigate the antiviral effect of inhibitors on HRV-C replication, organoids were inoculated with HRV-A1 or HRV-C3 at 1000 viral gene copy/cell and incubated with the PD medium in the presence of 1 μM Rupintrivir, 3 μM Itraconazole, or DMSO. The culture media were collected at the indicated h.p.i. for viral load detection. […]

Assay [3] concerns HRV-C3. Briefly: Antiviral inhibition in airway organoids infected with HRV-C3 (viral load by RT-qPCR). The assay is classed as cell-based, human rhinovirus C. The conditions noted are these: human airway organoids, 1 μM Rupintrivir or 3 μM Itraconazole, 1000 viral gene copy/cell, compared with HRV-A. As to the method: (§1) We then performed an antibody-blocking experiment in nasal organoids to assess the role of CDHR3 on HRV-C replication. We examined HRV-C replication in the nasal organoids in the presence of two a-CDHR3 antibodies or an isotypic IgG. […] Itraconazole^32, a repurposed antifungal drug with documented efficacy against rhinoviruses, was also tested.
(§2) A total of 9 HRV-C positive archived nasopharyngeal specimens from clinical patients were used for the study. Mature human airway and nasal organoids growing on 24-transwell inserts were washed twice with the basal medium (Advanced DMEM/F-12 (Gibco) supplemented with 1% HEPES, 1% GlutaMAX, and 1% Penicillin/Streptomycin), followed by virus inoculation with the indicated viral gene copy and subsequent incubation in the PD medium (PneumaCult-ALI medium (STEMCELL Technologies) supplemented with 10 μM DAPT and 10 μM Y27632), at 37° C. for 4 h. After incubation, the airway or nasal organoids were washed 3 times with the basal medium to remove residual inoculum. The apical and basolateral chambers were replenished with 300 μl and 500 μl PD medium, respectively. As for CYT387 treatment, airway and nasal organoids were pre-incubated in the PD medium with 1 μg/ml CYT387 (Invivogen, inh-cy87) or DMSO overnight. […]

Assay [4] deals with HRV-A1. Briefly: Antiviral inhibition in airway organoids infected with HRV-A1 (viral load by RT-qPCR). The assay is classed as cell-based, human rhinovirus A. The conditions noted are these: human airway organoids, 1 μM Rupintrivir or 3 μM Itraconazole, 1000 viral gene copy/cell, compared with HRV-C. As for the experimental part:
as §1, §2

SMILES strings stand for the structures. Entries after “also recorded” stand apart in the source; their conditions may differ.

Turning to `N#CCNC(=O)c1ccc(-c2ccnc(Nc3ccc(N4CCOCC4)cc3)n2)cc1` [CYT387, Momelotinib], the viral growth entry in assay [1] is reported as “significantly boosted viral growth”. Further, the “serial HRV-C propagation (P1-P5) and viral load versus DMSO-treated organoids” value in assay [2] is listed as “enabled serial propagation”; in assay [2] (listed as CYT), “consecutively passaged five times; also recorded: higher viral load”. The “viral replication in P2 passage” value in assay [2] (1 μg/ml CYT387, no viral growth in DMSO-treated organoids) is given as “sustained robust viral replication”. The “viral load in P1 media” value in assay [2] (1 μg/ml CYT387 vs DMSO, first passage, 96 h.p.i.) is given as “elevated viral load”.
With `CCOC(=O)/C=C/[C@H](C[C@@H]1CCNC1=O)NC(=O)[C@@H](CC(=O)[C@@H](NC(=O)c1cc(C)on1)C(C)C)Cc1ccc(F)cc1` [Rupintrivir], the “inhibitory effect on HRV-C (relative viral load versus DMSO-treated organoids)” value in assay [3] is “more prominent inhibitory effect”. The “inhibitory effect on HRV-A (relative viral load versus DMSO-treated organoids)” value in assay [4] is “more prominent inhibitory effect of both drugs on HRV-C than HRV-A”.
